Laboratory results taken from PubChem BioAssay AID1845204 (Molecular Pharmacology Branch, DTP, NCI, 2023).
Several values for one entry are separate records, joined by “and”; a condition that tells them apart may be missing. Equal entries are not always repeated.

Tested on: HSSY-II tumor spheroid viability
Assay: Anticancer human tumor HSSY-II cell line growth inhibition;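 note: spheroids exposed to compounds for seven days before reading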;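 for viability, T/C: percent of DMSO vehicle control viability so 100% = untreated level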
Conditions: spheroids with HUVEC and MSC; for viability, T/C: stronger effect = lower value
In short: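 Complex spheroids of malignant cells with endothelial cells and mesenchymal stem cells; agents alone or combined, from near clinical Cmax (or 10 microM if unknown) down in half-log steps, 0.25% DMSO final.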

[2H]c1nc(C)nc([2H])c1-c1cc(NC[C@@H](C)c2cccc3c(C(=O)NC)ccnc23)ncn1 + Cn1nnc2c(C(N)=O)ncn2c1=O
IC50 (curve of first compound, second compound 1 µM): > 10000 nM
IC50 (curve of first compound, second compound 3.16 µM): > 10000 nM
IC50 (curve of first compound, second compound 10 µM): > 10000 nM
IC50 (curve of first compound, second compound 31.6 µM): > 10000 nM
IC50 (curve of first compound, second compound 100 µM): > 10000 nM
viability, T/C (second compound 1 µM, first compound 0.0316 µM): 103%
viability, T/C (second compound 1 µM, first compound 0.1 µM): 101%
viability, T/C (second compound 1 µM, first compound 0.316 µM): 100%
viability, T/C (second compound 1 µM, first compound 1 µM): 96.8%
viability, T/C (second compound 1 µM, first compound 3.16 µM): 93.8%
viability, T/C (second compound 1 µM, first compound 10 µM): 91.7%
viability, T/C (second compound 3.16 µM, first compound 0.0316 µM): 104%
viability, T/C (second compound 3.16 µM, first compound 0.1 µM): 100%
viability, T/C (second compound 3.16 µM, first compound 0.316 µM): 98.5%
viability, T/C (second compound 3.16 µM, first compound 1 µM): 107%
viability, T/C (second compound 3.16 µM, first compound 3.16 µM): 94.1%
viability, T/C (second compound 3.16 µM, first compound 10 µM): 90.8%
viability, T/C (second compound 10 µM, first compound 0.0316 µM): 98.2%
viability, T/C (second compound 10 µM, first compound 0.1 µM): 103%
viability, T/C (second compound 10 µM, first compound 0.316 µM): 101%
viability, T/C (second compound 10 µM, first compound 1 µM): 97.5%
viability, T/C (second compound 10 µM, first compound 3.16 µM): 95.3%
viability, T/C (second compound 10 µM, first compound 10 µM): 86.2%
viability, T/C (second compound 31.6 µM, first compound 0.0316 µM): 108%
viability, T/C (second compound 31.6 µM, first compound 0.1 µM): 102%
viability, T/C (second compound 31.6 µM, first compound 0.316 µM): 106%
viability, T/C (second compound 31.6 µM, first compound 1 µM): 102%
viability, T/C (second compound 31.6 µM, first compound 3.16 µM): 97.2%
viability, T/C (second compound 31.6 µM, first compound 10 µM): 94.4%
viability, T/C (second compound 100 µM, first compound 0.0316 µM): 91.1%
viability, T/C (second compound 100 µM, first compound 0.1 µM): 94.4%
viability, T/C (second compound 100 µM, first compound 0.316 µM): 95.2%
viability, T/C (second compound 100 µM, first compound 1 µM): 91.4%
viability, T/C (second compound 100 µM, first compound 3.16 µM): 90.9%
viability, T/C (second compound 100 µM, first compound 10 µM): 85%

Cc1cc(C)c(CNC(=O)c2cc(-c3ccc(CN4CCOCC4)cc3)cc3c2cnn3C2CCCC2)c(=O)[nH]1 + COc1cc2c(cc1O)CCNC21CSC2c3c(OC(C)=O)c(C)c4c(c3C(COC1=O)N1C(O)C3Cc5cc(C)c(OC)c(O)c5C(C21)N3C)OCO4
IC50 (curve of first compound, second compound 30 pM): > 10000 nM
IC50 (curve of first compound, second compound 94.9 pM): 8460 nM
IC50 (curve of first compound, second compound 0.0003 µM): < 31.6 nM
IC50 (curve of first compound, second compound 0.000949 µM): < 31.6 nM
IC50 (curve of first compound, second compound 0.003 µM): < 31.6 nM
viability, T/C (second compound 30 pM, first compound 0.0316 µM): 106%
viability, T/C (second compound 30 pM, first compound 0.1 µM): 106%
viability, T/C (second compound 30 pM, first compound 0.316 µM): 108%
viability, T/C (second compound 30 pM, first compound 1 µM): 108%
viability, T/C (second compound 30 pM, first compound 3.16 µM): 107%
viability, T/C (second compound 30 pM, first compound 10 µM): 76.6%
viability, T/C (second compound 94.9 pM, first compound 0.0316 µM): 92.4%
viability, T/C (second compound 94.9 pM, first compound 0.1 µM): 100%
viability, T/C (second compound 94.9 pM, first compound 0.316 µM): 91.3%
viability, T/C (second compound 94.9 pM, first compound 1 µM): 86%
viability, T/C (second compound 94.9 pM, first compound 3.16 µM): 79.4%
viability, T/C (second compound 94.9 pM, first compound 10 µM): 45.1%
viability, T/C (second compound 0.0003 µM, first compound 0.0316 µM): 15.2%
viability, T/C (second compound 0.0003 µM, first compound 0.1 µM): 15.1%
viability, T/C (second compound 0.0003 µM, first compound 0.316 µM): 13.4%
viability, T/C (second compound 0.0003 µM, first compound 1 µM): 11.8%
viability, T/C (second compound 0.0003 µM, first compound 3.16 µM): 12.4%
viability, T/C (second compound 0.0003 µM, first compound 10 µM): 11.8%
viability, T/C (second compound 0.000949 µM, first compound 0.0316 µM): 2.63%
viability, T/C (second compound 0.000949 µM, first compound 0.1 µM): 2.57%
viability, T/C (second compound 0.000949 µM, first compound 0.316 µM): 2.16%
viability, T/C (second compound 0.000949 µM, first compound 1 µM): 2.23%
viability, T/C (second compound 0.000949 µM, first compound 3.16 µM): 2.69%
viability, T/C (second compound 0.000949 µM, first compound 10 µM): 1.43%
viability, T/C (second compound 0.003 µM, first compound 0.0316 µM): 0.15%
viability, T/C (second compound 0.003 µM, first compound 0.1 µM): 0.17%
viability, T/C (second compound 0.003 µM, first compound 0.316 µM): 0.17%
viability, T/C (second compound 0.003 µM, first compound 1 µM): 0.15%
viability, T/C (second compound 0.003 µM, first compound 3.16 µM): 0.17%
viability, T/C (second compound 0.003 µM, first compound 10 µM): 0.22%

Cc1sc2c(c1C)C(c1ccc(Cl)cc1)=NC(CC(=O)Nc1ccc(O)cc1)c1nnc(C)n1-2 (configuration not stated)
viability, T/C (compound 0.00949 µM): 103% and 96.2% and 86.5%
viability, T/C (compound 0.03 µM): 91.5% and 82% and 79.4%
viability, T/C (compound 0.0949 µM): 71.5% and 60.6% and 61.9%
viability, T/C (compound 0.3 µM): 30.2% and 39.3% and 30.7%
viability, T/C (compound 0.949 µM): 18.2% and 16.5% and 16.8%
viability, T/C (compound 3 µM): 11.9% and 11.7% and 9.97%
IC50 (curve of compound): 173 nM and 161 nM and 146 nM
